From patent publication EP2768830B1, “APOPTOSIS-INDUCING AGENTS FOR THE TREATMENT OF CANCER AND IMMUNE AND AUTOIMMUNE DISEASES” (AbbVie Inc., priority 2011, dated 2013)
Like-named read-outs stand apart in the source and are kept apart here.

Assays:
GST-Bcl-xL = GST-Bcl-xL (Homo sapiens, UniProt Q07817); settings: read-out: TR-FRET binding Bcl-xL Ki
[1] = tested on: mouse FL5.12 cells transfected with Bcl-XL; assay: FL5.12 cellular assay (cell viability, CellTiter-Glo); type: cell-based; settings: FL5.12 cells transfected with Bcl-XL, IL-3-depleted, 3% FBS assay media, 24 hours, CellTiter-Glo, read-out: FL5.12 Bcl-xL, - IL3, EC 50;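 note: each EC50 determination derived from duplicate measurements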

GST-Bcl-xL, sequence (Q07817 whole entry): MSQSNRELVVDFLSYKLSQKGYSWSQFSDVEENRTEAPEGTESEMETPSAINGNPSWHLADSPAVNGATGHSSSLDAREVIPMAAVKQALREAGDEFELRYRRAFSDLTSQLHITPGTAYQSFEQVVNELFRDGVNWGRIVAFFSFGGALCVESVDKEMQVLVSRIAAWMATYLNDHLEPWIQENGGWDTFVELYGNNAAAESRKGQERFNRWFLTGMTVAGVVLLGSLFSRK

Which Ki (GST-Bcl-xL) does the source give for `CN(C)CCOc1cccc(Cn2cc(-c3ccc(N4CCc5cccc(C(=O)Nc6nc7ccccc7s6)c5C4)nc3C(=O)O)cn2)c1` [Example 18, 6-[8-(1,3-benzothiazol-2-ylcarbamoyl)-3,4-dihydroisoquinolin-2(1H)-yl]-3-(1-{3-[2-(dimethylamino)ethoxy]benzyl}-1H-pyrazol-4-yl)pyridine-2-carboxylic acid] here?
Its Ki is 38 nM.

What about the EC50 ([1]; Mus musculus) of the same molecule?
Its EC50 is 621 nM.

`Cc1c(-c2ccc(N3CCc4cccc(C(=O)Nc5nc6ccccc6s5)c4C3)nc2C(=O)O)cnn1CC1(N2CCOCC2)CCCC(C)(C)C1` (stereo not shown) [Example 145, 6-[8-(1,3-benzothiazol-2-ylcarbamoyl)-3,4-dihydroisoquinolin-2(1H)-yl]-3-(1-{[3,3-dimethyl-1-(morpholin-4-yl)cyclohexyl]methyl}-5-methyl-1H-pyrazol-4-yl)pyridine-2-carboxylic acid] was tested. Which Ki (GST-Bcl-xL) did it give?
Its Ki is under 0.1 nM.

And the EC50 ([1]; Mus musculus)?
Its EC50 is 0.2 nM.

For `Cc1cc(OC2CCCCC2)ccc1-c1ccc(N2CCc3cccc(C(=O)Nc4nc5ccccc5s4)c3C2)nc1C(=O)O` [Example 113, 6-[8-(1,3-benzothiazol-2-ylcarbamoyl)-3,4-dihydroisoquinolin-2(1H)-yl]-3-[4-(cyclohexyloxy)-2-methylphenyl]pyridine-2-carboxylic acid], which Ki (GST-Bcl-xL) is on record?
The Ki was 19 nM.

What about the EC50 ([1]; Mus musculus) of the same molecule?
The EC50 was over 1000 nM.

What does the source list for `CN(C)CC#Cc1ccccc1Cn1cc(-c2ccc(N3CCc4cccc(C(=O)Nc5nc6ccccc6s5)c4C3)nc2C(=O)O)cn1` [Example 51, 6-[8-(1,3-benzothiazol-2-ylcarbamoyl)-3,4-dihydroisoquinolin-2(1H)-yl]-3-(1-{2-[3-(dimethylamino)prop-1-yn-1-yl]benzyl}-1H-pyrazol-4-yl)pyridine-2-carboxylic acid]?
Ki (GST-Bcl-xL): 122 nM; EC50 ([1]; Mus musculus): > 1000 nM

Which results are given for `O=C(Nc1nc2ccccc2s1)c1cccc2c1CN(c1ccc(-c3cnn(C(c4ccccc4)c4ccccc4)c3)c(C(=O)O)n1)CC2` [Example 75, 6-[8-(1,3-benzothiazol-2-ylcarbamoyl)-3,4-dihydroisoquinolin-2(1H)-yl]-3-[1-(diphenylmethyl)-1H-pyrazol-4-yl]pyridine-2-carboxylic acid]?
Ki (GST-Bcl-xL): 28 nM; EC50 ([1]; Mus musculus): 919 nM

Which results are given for `Cc1c(-c2ccc(N3CCc4cccc(C(=O)Nc5nc6ccccc6s5)c4C3)nc2C(=O)O)cnn1CC1(OCCCN2CCOCC2)CCCCCC1` [Example 155, 6-[8-(1,3-benzothiazol-2-ylcarbamoyl)-3,4-dihydroisoquinolin-2(1H)-yl]-3-[5-methyl-1-({1-[3-(morpholin-4-yl)propoxy]cycloheptyl}methyl)-1H-pyrazol-4-yl]pyridine-2-carboxylic acid]?
Ki (GST-Bcl-xL): < 0.1 nM; EC50 ([1]; Mus musculus): 7 nM

With `CC1(C)CCCC(Cn2cc(-c3ccc(N4CCc5cccc(C(=O)Nc6nc7ccccc7s6)c5C4)nc3C(=O)O)cn2)C1` (stereo not shown) [Example 92, 6-[8-(1,3-benzothiazol-2-ylcarbamoyl)-3,4-dihydroisoquinolin-2(1H)-yl]-3-{1-[(3,3-dimethylcyclohexyl)methyl]-1H-pyrazol-4-yl}pyridine-2-carboxylic acid] as the molecule, how does the Ki (GST-Bcl-xL) read?
The Ki was 2 nM.

What about the EC50 ([1]; Mus musculus) of the same molecule?
The EC50 was 56 nM.

How did the Ki (GST-Bcl-xL) turn out when `Cc1c(-c2ccc(N3CCc4cccc(C(=O)Nc5nc6ccccc6s5)c4C3)nc2C(=O)O)cnn1CC1(OCCN2CCS(=O)(=O)CC2)CCCCC1` [Example 167, 6-[8-(1,3-benzothiazol-2-ylcarbamoyl)-3,4-dihydroisoquinolin-2(1H)-yl]-3-[1-({1-[2-(1,1-dioxidothiomorpholin-4-yl)ethoxy]cyclohexyl}methyl)-5-methyl-1H-pyrazol-4-yl]pyridine-2-carboxylic acid] was run?
The Ki was under 0.1 nM.

What about the EC50 ([1]; Mus musculus) of the same molecule?
Its EC50 is 81 nM.

Which Ki (GST-Bcl-xL) does the source give for `O=C(Nc1nc2ccccc2s1)c1cccc2c1CN(c1ccc(-c3cnn(Cc4ccccc4OCc4ccccc4)c3)c(C(=O)O)n1)CC2` [Example 31, 6-[8-(1,3-benzothiazol-2-ylcarbamoyl)-3,4-dihydroisoquinolin-2(1H)-yl]-3-{1-[2-(benzyloxy)benzyl]-1H-pyrazol-4-yl}pyridine-2-carboxylic acid] here?
Its Ki is 18 nM.

And the EC50 ([1]; Mus musculus)?
The EC50 was over 1000 nM.

What does the source list for `CC(C)(C)Cn1cc(-c2ccc(N3CCc4cccc(C(=O)Nc5nc6ccccc6s5)c4C3)nc2C(=O)O)cn1` [Example 59, 6-[8-(1,3-benzothiazol-2-ylcarbamoyl)-3,4-dihydroisoquinolin-2(1H)-yl]-3-[1-(2,2-dimethylpropyl)-1H-pyrazol-4-yl]pyridine-2-carboxylic acid]?
Ki (GST-Bcl-xL): 424 nM; EC50 [1]: > 1000 nM

Which Ki (GST-Bcl-xL) does the source give for `CCOC(=O)c1cc(-c2ccc(N3CCc4cccc(C(=O)Nc5nc6ccccc6s5)c4C3)nc2C(=O)O)c(C)n1Cc1ccccc1` [Example 123, 6-[8-(1,3-benzothiazol-2-ylcarbamoyl)-3,4-dihydroisoquinolin-2(1H)-yl]-3-[1-benzyl-5-(ethoxycarbonyl)-2-methyl-1H-pyrrol-3-yl]pyridine-2-carboxylic acid] here?
The Ki was under 0.1 nM.

What about the EC50 ([1]; Mus musculus) of the same molecule?
Its EC50 is 16 nM.

Which Ki (GST-Bcl-xL) does the source give for `Cc1c(-c2ccc(N3CCc4cccc(C(=O)Nc5nc6ccccc6s5)c4C3)nc2C(=O)O)cnn1C(CCN1CCOCC1)C1CCCCC1` (stereo not shown) [Example 152, 6-[8-(1,3-benzothiazol-2-ylcarbamoyl)-3,4-dihydroisoquinolin-2(1H)-yl]-3-{1-[1-cyclohexyl-3-(morpholin-4-yl)propyl]-5-methyl-1H-pyrazol-4-yl}pyridine-2-carboxylic acid] here?
Its Ki is under 0.1 nM.

What about the EC50 ([1]; Mus musculus) of the same molecule?
The EC50 was 1 nM.

Which results are given for `N#Cc1c(OC2CCCCC2)cccc1-c1ccc(N2CCc3cccc(C(=O)Nc4nc5ccccc5s4)c3C2)nc1C(=O)O` [Example 116, 6-[8-(1,3-benzothiazol-2-ylcarbamoyl)-3,4-dihydroisoquinolin-2(1H)-yl]-3-[2-cyano-3-(cyclohexyloxy)phenyl]pyridine-2-carboxylic acid]?
Ki (GST-Bcl-xL): < 0.1 nM; EC50 ([1]; Mus musculus): 667 nM

`CC(C)(C)OC(=O)N1CCC(Cn2cc(-c3ccc(N4CCc5cccc(C(=O)Nc6nc7ccccc7s6)c5C4)nc3C(=O)O)cn2)CC1` [Example 78, 6-[8-(1,3-benzothiazol-2-ylcarbamoyl)-3,4-dihydroisoquinolin-2(1H)-yl]-3-(1-{[1-(tert-butoxycarbonyl)piperidin-4-yl]methyl}-1H-pyrazol-4-yl)pyridine-2-carboxylic acid] was tested. Which Ki (GST-Bcl-xL) did it give?
Its Ki is 379 nM.

What about the EC50 ([1]; Mus musculus) of the same molecule?
The EC50 was over 1000 nM.

With `O=C(Nc1nc2ccccc2s1)c1cccc2c1CN(c1ccc(-c3cnn(Cc4ccccc4OCCN4CCOCC4)c3)c(C(=O)O)n1)CC2` [Example 46, 6-[8-(1,3-benzothiazol-2-ylcarbamoyl)-3,4-dihydroisoquinolin-2(1H)-yl]-3-(1-{2-[2-(morpholin-4-yl)ethoxy]benzyl}-1H-pyrazol-4-yl)pyridine-2-carboxylic acid] as the molecule, how does the Ki (GST-Bcl-xL) read?
The Ki was 9 nM.

And the EC50 ([1]; Mus musculus)?
The EC50 was over 1000 nM.

How did the Ki (GST-Bcl-xL) turn out when `N#Cc1nn(Cc2ccccc2)cc1-c1ccc(N2CCc3cccc(C(=O)Nc4nc5ccccc5s4)c3C2)nc1C(=O)O` [Example 27, 6-[8-(1,3-benzothiazol-2-ylcarbamoyl)-3,4-dihydroisoquinolin-2(1H)-yl]-3-(1-benzyl-3-cyano-1H-pyrazol-4-yl)pyridine-2-carboxylic acid] was run?
The Ki was 315 nM.

What about the EC50 ([1]; Mus musculus) of the same molecule?
Its EC50 is over 1000 nM.

How did the Ki (GST-Bcl-xL) turn out when `Cc1c(-c2ccc(N3CCc4cccc(C(=O)Nc5nc6ccccc6s5)c4C3)nc2C(=O)O)cnn1Cc1ccccc1F` [Example 41, 6-[8-(1,3-benzothiazol-2-ylcarbamoyl)-3,4-dihydroisoquinolin-2(1H)-yl]-3-[1-(2-fluorobenzyl)-5-methyl-1H-pyrazol-4-yl]pyridine-2-carboxylic acid] was run?
Its Ki is 1 nM.

What about the EC50 ([1]; Mus musculus) of the same molecule?
The EC50 was 11 nM.
